Source: patent publication US10208071B2, “Use of agonists of formyl peptide receptor 2 for treating ocular inflammatory diseases” (Allergan, Inc., priority 2013, dated 2019)
Like-named read-outs stand apart in the source and are kept apart here.

Target: FPR2 (Homo sapiens (Human), UniProt P25090)
Assay: FLIPR Ca+2 response, HEK-Gα16 cells stably expressing the human FPR2 receptor (Table 4)
Format: cell-based
Settings: for FPR2 (efficacy): efficacy in parentheses
Procedure, shortened: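 HEK-Gα16 cells stably expressing human FPR2, loaded with 2 μM Fluo-4 in HBSS/20 mM HEPES for 40 min at 37° C., then washed. Ligands added in HBSS/Hepes and Ca+2 responses recorded on FLIPR in relative fluorescence units.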

Sequence of FPR2 (P25090 whole entry): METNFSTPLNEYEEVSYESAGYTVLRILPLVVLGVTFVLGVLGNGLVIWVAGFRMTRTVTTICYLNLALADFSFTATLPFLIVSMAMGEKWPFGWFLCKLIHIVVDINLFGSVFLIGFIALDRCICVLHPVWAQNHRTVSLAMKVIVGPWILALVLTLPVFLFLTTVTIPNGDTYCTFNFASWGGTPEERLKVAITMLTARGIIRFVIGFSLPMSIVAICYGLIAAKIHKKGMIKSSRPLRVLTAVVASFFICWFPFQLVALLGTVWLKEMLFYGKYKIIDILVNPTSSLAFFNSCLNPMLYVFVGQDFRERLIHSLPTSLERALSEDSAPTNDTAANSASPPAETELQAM

## O=C(Nc1ccc(Br)cc1)NC(Cc1ccccc1)C(=O)NC1CCCCNC1=O (stereo not shown) [Compound 10, 2-{[(4-bromophenyl)carbamoyl]amino}-N-(2-oxoazepan-3-yl)-3-phenylpropanamide]
  EC50: 11 nM
  FPR2 (efficacy): nM (0.89)

## O=C(Nc1ccc(Br)cc1F)N[C@@H](Cc1ccccc1)C(=O)NCCO [Compound 71, (2S)-2-{[(4-bromo-2-fluorophenyl)carbamoyl]amino}-N-(2-hydroxyethyl)-3-phenylpropanamide]
  EC50: 15.6 nM
  FPR2 (efficacy): nM (0.98)

## CC(C)C1(C(C)C)NC(=O)N(NC(=O)Nc2ccc(Br)cc2)C1=O [Compound 64, 1-(4-bromophenyl)-3-[2,5-dioxo-4,4-di(propan-2-yl)imidazolidin-1-yl]urea]
  EC50: 3.8 nM
  FPR2 (efficacy): nM (1.0)

## CC(=O)c1ccc(NC(=O)Nc2ccc3c(c2)C(=O)N(CCc2c[nH]cn2)C(c2ccc(C#N)cc2)C3)cc1 (stereo not shown) [Compound 13, 1-(4-acetylphenyl)-3-{3-(4-cyanophenyl)-2-[2-(1H-imidazol-4-yl)ethyl]-1-oxo-1,2,3,4-tetrahydroisoquinolin-7-yl}urea]
  FPR2 (efficacy): nM (0.80)

## CC(C)C[C@H](NC(=O)Nc1ccc(Br)cc1)C(=O)NCS(=O)(=O)O [Compound 127, {[(2S)-2-{[(4-bromophenyl)carbamoyl]amino}-4-methylpentanoyl]amino} methanesulfonic acid]
  EC50: 2 nM
  FPR2 (efficacy): nM (0.91)

## CC(C)C1(CC(=O)NCCO)NC(=O)N(NC(=O)Nc2ccc(Br)cc2F)C1=O (stereo not shown) [Compound 148, 2-[1-{[(4-bromo-2-fluorophenyl)carbamoyl]amino}-2,5-dioxo-4-(propan-2-yl)imidazolidin-4-yl]-N-(2-hydroxyethyl)acetamide]
  EC50: 6.9 nM
  FPR2 (efficacy): nM (0.98)

## CC(C)C1(CC(=O)NCCO)NC(=O)N(NC(=O)Nc2ccc(Br)cc2)C1=O (stereo not shown) [Compound 133, 2-[1-{[(4-bromophenyl)carbamoyl]amino}-2,5-dioxo-4-(propan-2-yl)imidazolidin-4-yl]-N-(2-hydroxyethyl)acetamide]
  EC50: 2.7 nM
  FPR2 (efficacy): nM (1.0)

## CS(=O)(=O)c1ccc(NC(=O)Nc2ccc3c(c2)C(=O)N(CCc2c[nH]cn2)C(c2ccc(Cl)cn2)C3)cc1 (stereo not shown) [Compound 33, 1-{3-(5-chloropyridin-2-yl)-2-[2-(1H-imidazol-4-yl)ethyl]-1-oxo-1,2,3,4-tetrahydroisoquinolin-7-yl}-3-[4-(methylsulfonyl)phenyl]urea]
  FPR2 (efficacy): nM (0.99)

## CCOP(=O)(O)CNC(=O)[C@@H](NC(=O)Nc1ccc(Br)cc1)[C@@H](C)CC [Compound 115, ethyl hydrogen ({[(2S,3S)-2-{[(4-bromophenyl)carbamoyl]amino}-3-methylpentanoyl]amino}methyl)phosphonate]
  EC50: 2.7 nM
  FPR2 (efficacy): nM (0.88)

## CC(=O)CNC(=O)[C@H](CC(C)C)NC(=O)Nc1ccc(Br)cc1 [Compound 78, (2S)-2-{[(4-bromophenyl)carbamoyl]amino}-4-methyl-N-(2-oxopropyl)pentanamide]
  FPR2 (efficacy): nM (0.82)

## CC1(CCc2ccccc2F)NC(=O)N(NC(=O)Nc2ccc(Br)cc2)C1=O (stereo not shown) [Compound 80, 1-(4-bromophenyl)-3-{4-[2-(2-fluorophenyl)ethyl]-4-methyl-2,5-dioxoimidazolidin-1-yl}urea]
  EC50: 14.3 nM
  FPR2 (efficacy): nM (99)

## CC1(CCc2cccc(O)c2)NC(=O)N(NC(=O)Nc2ccc(Br)cc2)C1=O (stereo not shown) [Compound 108, 1-(4-bromophenyl)-3-{4-[2-(3-hydroxyphenyl)ethyl]-4-methyl-2,5-dioxoimidazolidin-1-yl}urea]
  EC50: 2.1 nM
  FPR2 (efficacy): nM (1.0)

## CC(C)C[C@H](NC(=O)Nc1ccc(Br)cc1)C(=O)N(C)CC(=O)OC(C)(C)C [Compound 154, tert-butyl {[(2S)-2-{[(4-bromophenyl)carbamoyl]amino}-4-methylpentanoyl](methyl)amino} acetate]
  EC50: 12 nM
  FPR2 (efficacy): nM (0.85)

## CC(C)C1(CO)NC(=O)N(NC(=O)Nc2ccc(Br)cc2)C1=O (stereo not shown) [Compound 132, 1-(4-bromophenyl)-3-[4-(hydroxymethyl)-2,5-dioxo-4-(propan-2-yl)imidazolidin-1-yl]urea]
  EC50: 16.2 nM
  FPR2 (efficacy): nM (0.86)

## NC(=O)C1C(C(=O)Nc2ccc(I)cc2)C2C=CC1C21CC1 (stereo not shown) [Compound 39, N-(4-iodophenyl) spiro[bicyclo[2.2.1]heptane-7,1′-cyclopropane]-5-ene-2,3-dicarboxamide]
  EC50: 1.6 nM
  FPR2 (efficacy): nM (0.90)

## CNC(=O)C1C(C(=O)Nc2ccc(Br)cc2)C2CCC1C21CC1 (stereo not shown) [Compound 46, N-(4-bromophenyl)-N′-methylspiro[bicyclo[2.2.1]heptane-7,1′-cyclopropane]-2,3-dicarboxamide]
  EC50: 8.5 nM
  FPR2 (efficacy): nM (1.0)

## CCC1(CCc2ccccc2C(=O)OC)NC(=O)N(NC(=O)Nc2ccc(Br)cc2)C1=O (stereo not shown) [Compound 141, methyl 2-[2-(1-{[(4-bromophenyl)carbamoyl]amino}-4-ethyl-2,5-dioxoimidazolidin-4-yl)ethyl]benzoate]
  EC50: 10.3 nM
  FPR2 (efficacy): nM (0.92)

## CCC[C@H](NC(=O)Nc1ccc(Br)cc1)C(=O)NCP(=O)(OC(C)C)OC(C)C [Compound 125, dipropan-2-yl ({[(2S)-2-{[(4-bromophenyl)carbamoyl]amino}pentanoyl]amino}methyl) phosphonate]
  EC50: 1.2 nM
  FPR2 (efficacy): nM (1.0)

## CC(C)C[C@H](NC(=O)Nc1ccc(Br)cc1)C(=O)N(C)CC(=O)O [Compound 155, {[(2S)-2-{[(4-bromophenyl)carbamoyl]amino}-4-methylpentanoyl](methyl)amino} acetic acid]
  EC50: 1 nM
  FPR2 (efficacy): nM (1.0)

## CC1(CCc2ccc(O)c(F)c2)NC(=O)N(NC(=O)Nc2ccc(Br)cc2)C1=O (stereo not shown) [Compound 99, 1-(4-bromophenyl)-3-{4-[2-(3-fluoro-4-hydroxyphenyl)ethyl]-4-methyl-2,5-dioxoimidazolidin-1-yl}urea]
  EC50: 8 nM
  FPR2 (efficacy): nM (1.0)

## CC(=O)CNC(=O)[C@H](Cc1ccccc1)NC(=O)Nc1ccc(Br)cc1F [Compound 68, (2S)-2-{[(4-bromo-2-fluorophenyl)carbamoyl]amino}-N-(2-oxopropyl)-3-phenylpropanamide]
  EC50: 12.4 nM
  FPR2 (efficacy): nM (0.94)

## CCC[C@H](NC(=O)Nc1ccc(Br)cc1)C(=O)NCC(=O)O [Compound 2, {[(2S)-2-{[(4-bromophenyl)carbamoyl]amino}pentanoyl]amino}acetic acid]
  FPR2 (efficacy): (0.91)
Unit inferred
  EC50: 2 nM

## CSCC[C@H](NC(=O)Nc1ccc(Br)cc1)C(=O)NCC(=O)O [Compound 144, {[(2S)-2-{[(4-bromophenyl)carbamoyl]amino}-4-(methylsulfanyl)butanoyl]amino} acetic acid]
  EC50: 6.3 nM
  FPR2 (efficacy): nM (0.91)

## CSc1ccc(NC(=O)Nc2ccc3c(c2)C(=O)N(CCc2c[nH]cn2)C(c2ccc(Cl)nc2)C3)cc1 (stereo not shown) [Compound 28, 1-{3-(6-chloropyridin-3-yl)-2-[2-(1H-imidazol-4-yl)ethyl]-1-oxo-1,2,3,4-tetrahydroisoquinolin-7-yl}-3-[4-(methylsulfanyl)phenyl]urea]
  FPR2 (efficacy): nM (0.89)

## CCC[C@H](NC(=O)Nc1ccc(Br)cc1F)C(=O)NCC(N)=O [Compound 81, (2S)-N-(2-amino-2-oxoethyl)-2-{[(4-bromo-2-fluorophenyl)carbamoyl]amino} pentanamide]
  FPR2 (efficacy): nM (0.96)

## CCOC(=O)CCC1(C(C)C)NC(=O)N(NC(=O)Nc2ccc(Br)cc2)C1=O (stereo not shown) [Compound 149, ethyl 3-[1-{[(4-bromophenyl)carbamoyl]amino}-2,5-dioxo-4-(propan-2-yl)imidazolidin-4-yl]propanoate]
  EC50: 6.6 nM
  FPR2 (efficacy): nM (0.94)

## CSc1ccc(NC(=O)Nc2ccc3c(c2)C(=O)N(CCCN)[C@@H](c2ccc(C#N)cc2)C3)cc1 [Compound 36, (+)1-[(3R)-2-(3-aminopropyl)-3-(4-cyanophenyl)-1-oxo-1,2,3,4-tetrahydroisoquinolin-7-yl]-3-[4-(methylsulfanyl)phenyl]urea]
  EC50: 3.3 nM
  FPR2 (efficacy): nM (0.97)

## O=C(O)CNC(=O)C(Cc1c[nH]c2ccccc12)NC(=O)Nc1ccc(Br)cc1 (stereo not shown) [Compound 150, {[2-{[(4-bromophenyl)carbamoyl]amino}-3-(1H-indol-3-yl)propanoyl]amino}acetic acid]
  EC50: 1.4 nM
  FPR2 (efficacy): nM (0.98)

## CCOP(=O)(CNC(=O)[C@H](CC(C)C)NC(=O)Nc1ccc(Br)cc1)OCC [Compound 112, diethyl ({[(2S)-2-{[(4-bromophenyl)carbamoyl]amino}-4-methylpentanoyl]amino}methyl)phosphonate]
  EC50: 0.48 nM

## CC(C)C[C@H](NC(=O)Nc1ccc(C(F)(F)F)cc1)C(=O)NC(C)(C)C(=O)O [Compound 139, 2-methyl-2-{[(2S)-4-methyl-2-({[4-(trifluoromethyl)phenyl]carbamoyl}amino)pentanoyl]amino} propanoic acid]
  EC50: 2.5 nM
  FPR2 (efficacy): nM (0.92)

## CCOP(=O)(CCNC(=O)[C@H](CC(C)C)NC(=O)Nc1ccc(Br)cc1)OCC [Compound 119, diethyl (2-{[(2S)-2-{[(4-bromophenyl)carbamoyl]amino}-4-methylpentanoyl]amino}ethyl) phosphonate]
  EC50: 16.1 nM

## CCC1(CCc2ccccc2C(=O)O)NC(=O)N(NC(=O)Nc2ccc(Br)cc2F)C1=O (stereo not shown) [Compound 146, 2-[2-(1-{[(4-bromo-2-fluorophenyl)carbamoyl]amino}-4-ethyl-2,5-dioxoimidazolidin-4-yl)ethyl]benzoic acid]
  EC50: 11.1 nM
  FPR2 (efficacy): nM (1.0)

## CCOP(=O)(O)CNC(=O)[C@H](Cc1ccccc1)NC(=O)Nc1ccc(Br)cc1 [Compound 126, ethyl hydrogen ({[(2S)-2-{[(4-bromophenyl)carbamoyl]amino}-3-phenylpropanoyl]amino}methyl)phosphonate]
  FPR2 (efficacy): nM (1.0)
